According to paper PMC12114947, “Evaluation of Violacein Metabolic Stability and Metabolite Identification in Human, Mouse, and Rat Liver Microsomes” (Pharmaceutics, 2025):
Converted amounts (≈) assume the structure as drawn.

Experiments:
[1] = In vitro metabolic stability in rat liver microsomes; type: in vitro ADME
Experimental: After removal, a pool consisting of livers from five naïve male rats and five C57BL male mice was immediately placed in a 50 mM Tris-HCl buffer, pH 7.4, containing 150 mM KCl. The livers were diced with scissors and washed three times with buffer, followed by homogenization with 20 mL of buffer in a Potter-type homogenizer (three cycles, with each cycle comprising three grindings of 1 min each at 1000 rpm). The homogenate was centrifuged at 10,000× g for 15 min at 4 °C. The resulting supernatant was then ultracentrifuged at 100,000× g for 60 min at 4 °C to obtain the microsomal pellet, which was resuspended in 50 mM HEPES-HCl buffer, pH 7.4, containing 20% glycerol and 1 mM EDTA.
The metabolic stability of volacein was assessed as described by Godoi et al. and Antunes et al.. Aliquots (4 µL) of 100 µM violacein working solution and 96 µL of the NADPH-regenerating system, containing 1.1 mM NADP^+, 10 mM glucose-6-phosphate, 1 U/mL glucose-6-phosphate dehydrogenase, 5 mM sodium citrate, and 66 mM magnesium chloride in 100 mM phosphate buffer, pH 7.4, were transferred to propylene tubes and pre-incubated for 5 min in an MTC 100 thermo shaker incubator (Miulab, Zhejiang, China) at 300 rpm and 37 °C. Subsequently, the metabolic reactions were initiated by adding 100 μL of microsomal proteins from HLMs, RLMs, and MLMs at a concentration of 2 mg/mL to the pre-incubated shaking tubes, resulting in final concentrations of 2 μM for violacein and 1 mg/mL for microsomal proteins. In this experiment, seven incubation times were planned for each species (0, 3, 5, 15, 30, 60, and 120 min), in triplicate. At each time interval, the reactions were stopped by adding 400 μL of ice-cold acetonitrile spiked with 10 µM omeprazole (IS) to each tube. Finally, the samples were vortexed for 5 min in a BenchMixer^TM XL (Benchmark, NJ, USA) and centrifuged at 12,000× g for 15 min at 4 °C (Hettich® Universal 320 R, Tuttlingen, Germany). The supernatants were transferred to a 96-well plate and 8 μL was injected into the LC-MS/MS system (see Section 2.3).
All incubations were performed simultaneously with positive and negative controls. The positive controls were prepared by incubating dapaconazole at the same conditions as violacein (final concentrations: 2 μM) and its metabolic stability was compared with previous studies. Similarly, the negative controls were prepared by incubating violacein in buffer solution, in the absence of microsome and cofactor solutions.
Violacein was analyzed using LC-MS/MS (LC-QQQ MS, LCMS8045, Shimadzu, Kyoto, Japan). Chromatographic separation was achieved on a Raptor^TM Biphenyl column (2.1 × 100 mm, 2.7 μm) at 40 °C. The mobile phases consisted of water (mobile phase A) and methanol (mobile phase B), both containing 2 mM ammonium formate and 0.1% (v/v) formic acid. A flow rate of 0.3 mL/min was used with an elution gradient starting at 20% mobile phase B and holding for 0.2 min, followed by a linear increase to 95% mobile phase B over 2 min that was then maintained for 1 min, with a return to the initial condition in 0.2 min. The total chromatographic run time was 5 min.
In vitro t1/2 was calculated using to the following equation [60, 61]:(1) t1/2=ln(2)/k where k is the slope of the log-linear regression graph of the percentage of drug remaining as a function of time.
CLint, in vitro was calculated using to the following equation [60, 61]:(2) CLint, in vitro=0.693/t1/2×Vincubation/mmicrosomes where Vincubation indicates the volume of the incubation in μL and mmicrosomes indicates the mass of microsomal proteins added to the incubation solution in mg. […]

Trichophyton rubrum = test system: Trichophyton rubrum; set-up: method as in PMID 26428920; settings: cited from earlier work
Candida tropicalis = test system: Candida tropicalis; set-up: method as in PMID 26428920; settings: cited from earlier work
parasitemia = test system: parasitemia; set-up: method as in PMID 19273690; settings: C57BL/6 mice, three consecutive days, 3.75 mg/kg/day; cited from earlier work

Compound: O=C1NC(c2c[nH]c3ccc(O)cc23)=C/C1=C1\C(=O)Nc2ccccc21 [violacein]
- CLint, in vitro ([1]; RLMs): 38.41 µL/min/mg
- Ln Z ([1]; RLMs, time 0 min): 4.605
- Z (%), remaining percentage of violacein ([1]; RLMs, time 0 min): 100%
- Ln Z ([1]; RLMs, time 3 min): 4.495
- Z (%), remaining percentage of violacein ([1]; RLMs, time 3 min): 90%
- Ln Z ([1]; RLMs, time 5 min): 4.101
- Z (%), remaining percentage of violacein ([1]; RLMs, time 5 min): 60%
- Ln Z ([1]; RLMs, time 15 min): 3.832
- Z (%), remaining percentage of violacein ([1]; RLMs, time 15 min): 46%
- Ln Z ([1]; RLMs, time 30 min): 3.371
- Z (%), remaining percentage of violacein ([1]; RLMs, time 30 min): 29%
- Ln Z ([1]; RLMs, time 60 min): 2.549
- Z (%), remaining percentage of violacein ([1]; RLMs, time 60 min): 13%
- Ln Z ([1]; RLMs, time 120 min): 1.899
- Z (%), remaining percentage of violacein ([1]; RLMs, time 120 min): 7%
- Slope (k), metabolism rate constant ([1]; RLMs, ln remaining % vs incubation time): y = −0.0192x + 4.0344 r^2 = 0.9459 Slope (k) = 0.0192
- microsomal CLint at 2 µM ([1]; male, rat, rat liver microsomes, pH 7.4, RLMs): 38.4 µL/min/mg
- CLint scaled at 2 µM ([1]; male, rat, rat liver microsomes, pH 7.4, rat, extrapolated from CLint, in vitro by allometric scaling, read-out: CLint, in vivo): 93.7 mL/min/kg
- half-life at 2 µM ([1]; male, rat, rat liver microsomes, pH 7.4, RLMs, 2 μM violacein, 1 mg/mL microsomal protein, NADPH-regenerating system, 37 °C, n = 3, read-out: In vitro elimination half-life (t1/2)): 36 min
- CLint, in vivo ([1]; rat, extrapolated from CLint, in vitro by allometric scaling): 93.72 mL/min/kg
- MIC (Trichophyton rubrum): 2 µg/mL (≈ 5.83 µM)
- MIC (Candida tropicalis): 16 µg/mL (≈ 46.6 µM)
- Reduction in parasitemia (parasitemia): 82%
